Each molecule was assayed on MEF (assay: Antiproliferative activity against wild type MEF cells assessed as cell viability after 72 hrs by MTT assay). Details: Mus musculus.
Format: cell-based

Compound	IC50
Cc1nc2c(N)cccc2c(=O)[nH]1	> 500 µM
Nc1cccc2c(=O)[nH]cnc12	> 600 µM
CN(C)CC(=O)Nc1ccc2[nH]c(=O)c3ccccc3c2c1 [PJ34]	19.8 µM
Cc1nc(O)c2cccc(C)c2n1	177 µM

These molecules were tested against T1, Poly [ADP-ribose] polymerase 1 (Homo sapiens, UniProt P09874) (assay: Ratio of quinazoline-4(3H)-one IC50 to compound IC50 for PARP1). Details: not given.
T1 sequence (P09874 whole entry): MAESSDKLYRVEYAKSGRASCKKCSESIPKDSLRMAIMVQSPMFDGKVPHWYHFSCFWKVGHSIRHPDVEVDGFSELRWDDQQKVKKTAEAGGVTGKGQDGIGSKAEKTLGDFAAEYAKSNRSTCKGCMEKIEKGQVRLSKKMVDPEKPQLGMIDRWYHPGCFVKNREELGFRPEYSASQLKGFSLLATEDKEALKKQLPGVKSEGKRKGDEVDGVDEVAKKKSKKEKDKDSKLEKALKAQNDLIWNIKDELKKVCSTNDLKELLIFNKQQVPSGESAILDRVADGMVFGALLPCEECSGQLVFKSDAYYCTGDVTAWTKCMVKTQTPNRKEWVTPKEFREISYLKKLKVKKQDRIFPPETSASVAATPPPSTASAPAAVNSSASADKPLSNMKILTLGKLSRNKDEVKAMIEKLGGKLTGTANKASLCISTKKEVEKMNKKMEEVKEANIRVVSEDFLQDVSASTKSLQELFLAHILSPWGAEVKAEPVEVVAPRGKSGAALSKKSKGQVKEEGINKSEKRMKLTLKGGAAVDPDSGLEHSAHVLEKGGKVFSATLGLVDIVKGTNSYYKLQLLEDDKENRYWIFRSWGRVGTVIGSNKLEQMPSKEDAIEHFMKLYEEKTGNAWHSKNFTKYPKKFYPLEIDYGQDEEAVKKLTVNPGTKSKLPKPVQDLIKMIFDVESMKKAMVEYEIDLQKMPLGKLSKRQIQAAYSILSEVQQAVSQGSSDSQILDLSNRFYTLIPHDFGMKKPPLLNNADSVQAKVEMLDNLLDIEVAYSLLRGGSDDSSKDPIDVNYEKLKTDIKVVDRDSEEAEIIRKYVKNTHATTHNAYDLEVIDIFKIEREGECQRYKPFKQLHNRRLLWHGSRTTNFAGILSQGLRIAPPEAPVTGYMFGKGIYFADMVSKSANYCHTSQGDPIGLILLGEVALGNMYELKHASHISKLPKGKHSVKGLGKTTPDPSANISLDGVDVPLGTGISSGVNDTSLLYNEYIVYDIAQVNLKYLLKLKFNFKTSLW

Compound	Ratio IC50
Cc1cc(C)c2nc[nH]c(=O)c2c1	4
Cc1cccc2c(=O)[nH]cnc12	4

What follows are molecules tested against T1, Poly [ADP-ribose] polymerase 1 (assay: Inhibition of PARP1 using TACS-Sapphire substrate for 30 mins by colorimetry). Details: not given.

Compound	IC50
Cc1nc2c(N)cccc2c(=O)[nH]1	0.4 µM
O=c1[nH]cnc2ccc(F)cc12	9.01 µM
Cc1cc(C)c2nc[nH]c(=O)c2c1	1.39 µM
Nc1cccc2c(=O)[nH]cnc12	0.76 µM
Cc1nc2c(Cl)cccc2c(=O)[nH]1	2.65 µM
Cc1cc(C)c2nc(C)[nH]c(=O)c2c1	13.2 µM
O=c1[nH]cnc2ccc(Cl)cc12	11 µM
Cc1nc2cccc(Cl)c2c(=O)[nH]1	1.18 µM
Cc1nc2cccc(C)c2c(=O)[nH]1	5.31 µM
Cc1nc2cccc(F)c2c(=O)[nH]1	1.97 µM
O=c1[nH]cnc2cccc(F)c12	7.04 µM
Cc1nc(O)c2cccc(C)c2n1	0.49 µM
O=c1[nH]cnc2c(F)cccc12	18.8 µM
O=c1[nH]cnc2cccc(Cl)c12	3.19 µM
O=c1[nH]cnc2cc(C(F)(F)F)ccc12	7.5 µM
O=c1[nH]cnc2ccc([N+](=O)[O-])cc12	25 µM
O=c1[nH]cnc2c(Cl)cccc12	5.65 µM
Cc1ccc2nc[nH]c(=O)c2c1	25 µM
Cc1cccc2c(=O)[nH]cnc12	1.32 µM

The molecules below were run on MEF (assay: Antiproliferative activity against MEF cells harboring Brca1 deletion mutant at exon 11 assessed as cell viability after 72 hrs by MTT assay). Details: Mus musculus.
Format: functional, cell-based

Compound	IC50
Cc1nc2c(N)cccc2c(=O)[nH]1	49 µM
Nc1cccc2c(=O)[nH]cnc12	> 600 µM
CN(C)CC(=O)Nc1ccc2[nH]c(=O)c3ccccc3c2c1 [PJ34]	13.2 µM
Cc1nc(O)c2cccc(C)c2n1	15.1 µM

These molecules were tested against T1, Poly [ADP-ribose] polymerase 1 (assay: Inhibition of PARP1 at 25 uM using TACS-Sapphire substrate for 30 mins by colorimetry). Details: not given.

Compound	inhibition
O=c1[nH]cnc2c(C(F)(F)F)cccc12	40%
O=c1[nH]cnc2cc(F)c(F)cc12	< 40%
Nc1ccc2c(=O)[nH]cnc2c1	< 40%
Cc1ccc2c(=O)[nH]cnc2c1	40%
O=c1[nH]cnc2ccc(I)cc12	40%
Oc1ncnc2cc(Cl)ccc12	< 40%
COc1cc2nc[nH]c(=O)c2cc1OC	< 40%
O=c1[nH]cnc2ccc(O)cc12	40%
Nc1ccc2nc[nH]c(=O)c2c1	40%
O=[N+]([O-])c1cccc2c(O)ncnc12	< 40%
Cc1ccc2nc[nH]c(=O)c2c1	40%
O=[N+]([O-])c1ccc2ncnc(O)c2c1	40%
O=c1[nH]cnc2cc([N+](=O)[O-])ccc12	< 40%
O=c1[nH]cnc2cc(F)ccc12	< 40%
Cc1cccc2nc[nH]c(=O)c12	40%

What follows are molecules tested on MEF (assay: Ratio of IC50 for wild type MEF cells to MEF cells harboring Brca1 deletion mutant at exon 11). Details: not given.
Format: functional, Mus musculus

Compound	Ratio IC50
Cc1nc2c(N)cccc2c(=O)[nH]1	>10
Cc1nc(O)c2cccc(C)c2n1	12
